# Test results reported in paper PMC8286840, “Identifying SARS-CoV-2 antiviral compounds by screening for small molecule inhibitors of Nsp3 papain-like protease” (Biochemical Journal, 2021).
# Counter-ions that a name gives are not always drawn. Like-named read-outs stand apart in the source and are kept apart here. Where a SMILES comes first, the peptide text is derived from it. The star is where a group is joined. PhAc = O=C(Cc1ccccc1)*
# Assays:
# [1] = target: T1, SARS-CoV-2 PLpro (nsp3 1564–1878) (Severe acute respiratory syndrome coronavirus 2, UniProt P0DTD1); test: biochemical; parameters: FRET-quenched peptide (Pro3) cleavage by PLpro, 10 min pre-incubation, slope over 20 min, normalised to no-compound control; settings: low concentration screen, read-out: % of control remaining
# [2] = target: T1, SARS-CoV-2 PLpro (nsp3 1564–1878); test: biochemical; parameters: FRET-quenched peptide (Pro3) cleavage by PLpro, 10 min pre-incubation, slope over 20 min, normalised to no-compound control; settings: high concentration screen, read-out: % of control remaining
compound,measurement,setting,value
CN[C@@H]1C[C@@H](c2ccc(Cl)c(Cl)c2)c2ccccc21 [Indatraline hydrochloride],remaining activity at 1.25 µM,[1]; Well no.=969,106%
same,remaining activity at 3.75 µM,[2]; Well no.=969,106%
CCO[C@H]1CN([C@H]2CC[C@@](O)(c3ccc4c(c3)OCO4)CC2)C[C@@H]1NC(=O)CNC(=O)c1cccc(C(F)(F)F)c1 [INCB3344],remaining activity at 1.25 µM,[1]; Well no.=8605,108%
same,remaining activity at 3.75 µM,[2]; Well no.=8605,102%
C=CCN1CCc2cccc3c2[C@H]1Cc1ccc(O)c(O)c1-3 [R(-)-N-Allylnorapomorphine hydrobromide],remaining activity at 1.25 µM,[1]; Well no.=398,98.8%
same,remaining activity at 3.75 µM,[2]; Well no.=398,97.4%
O=[N+]([O-])c1ccc2c(c1)S(=O)(=O)C=C2 [Stattic],remaining activity at 1.25 µM,[1]; Well no.=4748,104%
same,remaining activity at 3.75 µM,[2]; Well no.=4748,104%
CN(C)CCCCSC(=N)N [SKF 91488 dihydrochloride],remaining activity at 1.25 µM,[1]; Well no.=1421,100%
same,remaining activity at 3.75 µM,[2]; Well no.=1421,98.7%
C#C[C@]1(O)CC[C@H]2[C@@H]3CCc4cc(OC)ccc4[C@H]3CC[C@@]21C [Mestranol],remaining activity at 1.25 µM,[1]; Well no.=4768,101%
same,remaining activity at 3.75 µM,[2]; Well no.=4768,102%
Clc1ccc(C(Cn2ccnc2)OCc2ccsc2Cl)c(Cl)c1 (stereo not shown) [Tioconazole],remaining activity at 1.25 µM,[1]; Well no.=1956,103%
same,remaining activity at 3.75 µM,[2]; Well no.=1956,104%
O=C(O)CP(=O)(O)O [Phosphonoacetic acid],remaining activity at 1.25 µM,[1]; Well no.=1299,101%
same,remaining activity at 3.75 µM,[2]; Well no.=1299,103%
CSc1nc(-c2ccnc(NC(C)c3ccccc3)c2)c(-c2ccc(F)cc2)[nH]1 (stereo not shown) [p38 MAP Kinase Inhibitor III],remaining activity at 1.25 µM,[1]; Well no.=2596,94.7%
same,remaining activity at 3.75 µM,[2]; Well no.=2596,94.5%
COC(=O)[C@H]1[C@H]2C[C@H]3c4[nH]c5ccccc5c4CCN3C[C@@H]2CC[C@@H]1O [Corynanthine],remaining activity at 1.25 µM,[1]; Well no.=3795,97.4%
same,remaining activity at 3.75 µM,[2]; Well no.=3795,103%
O=C(NCc1ccc2c(c1)OCO2)c1c(Cl)cccc1Cl [Alda-1],remaining activity at 1.25 µM,[1]; Well no.=5935,101%
same,remaining activity at 3.75 µM,[2]; Well no.=5935,99.3%
CCCCNC(=O)NS(=O)(=O)c1ccc(C)cc1 [Tolbutamide],remaining activity at 1.25 µM,[1]; Well no.=1329,107%
same,remaining activity at 1.25 µM,[1]; Well no.=1601,99.7%
same,remaining activity at 3.75 µM,[2]; Well no.=1329,104%
same,remaining activity at 3.75 µM,[2]; Well no.=1601,97.6%
Cn1cc(/C=C/C(=O)c2cccc(F)c2)cc1/C=C/C(=O)NO [MC1568],remaining activity at 1.25 µM,[1]; Well no.=4905,102%
same,remaining activity at 3.75 µM,[2]; Well no.=4905,101%
NC(=O)NS(=O)(=O)c1ccc(N)cc1 [Sulfacarbamide],remaining activity at 1.25 µM,[1]; Well no.=7502,96.2%
same,remaining activity at 3.75 µM,[2]; Well no.=7502,98.8%
CC(CN1c2ccccc2Sc2ccccc21)N(C)C (stereo not shown) [Promethazine.HCl],remaining activity at 1.25 µM,[1]; Well no.=1640,96.2%
same,remaining activity at 3.75 µM,[2]; Well no.=1640,97.2%
C[N+](C)(C)CC=O [Betaine aldehyde chloride],remaining activity at 1.25 µM,[1]; Well no.=125,96.6%
same,remaining activity at 3.75 µM,[2]; Well no.=125,102%
C[C@H]([C@H](O)CCC(C)(C)O)[C@H]1CC[C@@]2(O)C3=CC(=O)[C@@H]4C[C@@H](O)[C@@H](O)C[C@]4(C)[C@H]3CC[C@]12C,remaining activity at 1.25 µM,[1]; Well no.=3603,101%
same,remaining activity at 3.75 µM,[2]; Well no.=3603,106%
CC(=O)c1ccc(N2CCOCC2)cc1O [DNA-PK Inhibitor III],remaining activity at 1.25 µM,[1]; Well no.=2365,104%
same,remaining activity at 3.75 µM,[2]; Well no.=2365,105%
CCOC(=O)CNC(=O)[C@@H]1CCCN1C(=O)Cc1ccccc1 [Noopept] (PhAc-Pro-Gly-OEt),remaining activity at 1.25 µM,[1]; Well no.=5674,104%
same,remaining activity at 3.75 µM,[2]; Well no.=5674,104%
"O=Cc1c2[nH]c3ccccc3c2cc2[nH]c3ccccc3c12 [6-Formylindolo [3,2-B] carbazole]",remaining activity at 1.25 µM,[1]; Well no.=4507,90.7%
same,remaining activity at 3.75 µM,[2]; Well no.=4507,97.6%
NCCCCN(Cc1nc2ccccc2[nH]1)[C@H]1CCCc2cccnc21 [Mavorixafor (trihydrochloride)],remaining activity at 1.25 µM,[1]; Well no.=8167,109%
same,remaining activity at 3.75 µM,[2]; Well no.=8167,103%
"CC(COc1ccc(/C=C/c2ccccc2)cc1)[N+](C)(C)C (stereo not drawn) [N,N,N-trimethyl-1-(4-trans-stilbenoxy)-2-propylammonium iodide]",remaining activity at 1.25 µM,[1]; Well no.=1531,98.1%
same,remaining activity at 3.75 µM,[2]; Well no.=1531,99.7%
CCCCCC/C=C/CCCCCCCCCC(=O)O [11(E)-Octadecenoic acid],remaining activity at 1.25 µM,[1]; Well no.=4350,106%
same,remaining activity at 3.75 µM,[2]; Well no.=4350,104%
CC1=NN=C(c2ccc(N)cc2)c2cc3c(cc2C1)OCO3 [GYKI 52466 hydrochloride],remaining activity at 1.25 µM,[1]; Well no.=748,92.9%
same,remaining activity at 3.75 µM,[2]; Well no.=748,92.5%
CCCc1cc(=O)[nH]c(=S)[nH]1 [Propylthiouracil],remaining activity at 1.25 µM,[1]; Well no.=4670,98.7%
same,remaining activity at 3.75 µM,[2]; Well no.=4670,94.9%
O=C(CCCN1CC=C(n2c(=O)[nH]c3ccccc32)CC1)c1ccc(F)cc1 [Droperidol],remaining activity at 1.25 µM,[1]; Well no.=493,105%
same,remaining activity at 1.25 µM,[1]; Well no.=7382,97.2%
same,remaining activity at 3.75 µM,[2]; Well no.=493,106%
same,remaining activity at 3.75 µM,[2]; Well no.=7382,101%
OCc1ccc(O)cc1 [4-Hydroxybenzyl alcohol],remaining activity at 1.25 µM,[1]; Well no.=6876,98.2%
same,remaining activity at 3.75 µM,[2]; Well no.=6876,95.1%
C/C(O)=C(\C#N)C(=O)Nc1cc(Br)ccc1Br [LFM-A13],remaining activity at 1.25 µM,[1]; Well no.=789,99.1%
same,remaining activity at 3.75 µM,[2]; Well no.=789,97.7%
"CCCCCCCC/C=C\CCCCCCCC(=O)OCC(CO)OC(=O)CCCCCCC/C=C\CCCCCCCC (stereo not shown) [1,2-Dioleoyl-glycerol (18:1)]",remaining activity at 1.25 µM,[1]; Well no.=4478,96%
same,remaining activity at 3.75 µM,[2]; Well no.=4478,100%
"CCCCC/C=C/C/C=C/CCCCCCCC(=O)O [9(E),12(E)-Octadecadienoic acid]",remaining activity at 1.25 µM,[1]; Well no.=4356,105%
same,remaining activity at 3.75 µM,[2]; Well no.=4356,104%
O=C1C=CC(=O)C=C1 [p-Benzoquinone],remaining activity at 1.25 µM,[1]; Well no.=166,102%
same,remaining activity at 3.75 µM,[2]; Well no.=166,105%
c1ccc2c(c1)OCC(C1=NCCN1)O2 (stereo not shown) [Idazoxan hydrochloride],remaining activity at 1.25 µM,[1]; Well no.=821,105%
same,remaining activity at 3.75 µM,[2]; Well no.=821,102%
O=c1[nH]cc(CO)c(=O)[nH]1 [5-Hydroxymethyluracil],remaining activity at 1.25 µM,[1]; Well no.=6499,99.6%
same,remaining activity at 3.75 µM,[2]; Well no.=6499,101%
COc1ccc2c3n(c(=NC(=O)c4cccnc4)nc2c1OC)CCN3 [PIK-90],remaining activity at 1.25 µM,[1]; Well no.=2747,91.2%
same,remaining activity at 3.75 µM,[2]; Well no.=2747,95%
C=C(C)[C@@H]1CC[C@]2(CO)CC[C@]3(C)[C@H](CC[C@@H]4[C@@]5(C)CC[C@H](O)C(C)(C)[C@@H]5CC[C@]43C)[C@@H]12 [Betulin],remaining activity at 1.25 µM,[1]; Well no.=3835,103%
same,remaining activity at 3.75 µM,[2]; Well no.=3835,101%
"FC(F)(F)c1cc(CO[C@H]2CCCN[C@H]2c2ccccc2)cc(C(F)(F)F)c1 [L-733,060 hydrochloride]",remaining activity at 1.25 µM,[1]; Well no.=918,99.8%
same,remaining activity at 3.75 µM,[2]; Well no.=918,103%
